Values of other authors, collected in paper PMC3828007 (CPT: Pharmacometrics & Systems Pharmacology, 2013).

Columns and labels:
NET (plasma DHPG) = conditions: read-out: in vivo EC50 for inhibitory effect on plasma DHPG

EC50 (NET (plasma DHPG))	Structure (SMILES)	CYP inhibition liability (CYP)
	COc1ccc(C(CN(C)C)C2(O)CCCCC2)cc1 (centres unmarked) [venlafaxine]	moderate
